Patent US9062043B2, “Fused tricyclic compounds as serine-threonine protein kinase and PARP modulators” (SENHWA BIOSCIENCES, INC., priority 2006, dated 2015)

What was measured:
[1] = Body weight of tumor-bearing xenograft animals; assay type: in vivo; settings: BC-PC3 xenograft mice, IV and IP dosing
recombinant human PIM-1 = recombinant human PIM-1 (Homo sapiens (Human), UniProt P11309); test: PIM-1 assay (cell-free, radiometric); assay type: biochemical
Description: The reactions are incubated for 10 min at 30° C., quenched with 100 ul of 0.75% Phosphoric acid, then transferred to and filtered through a Phosphocellulose filter plate (Millipore). After washing each well 5 times with 0.75% Phosphoric acid, Scintilation fluid (15 ul) is added to each well. The residual radioactivity is measured using a […].

protein kinases [2] = biological target: protein kinases (Homo sapiens, UniProt P06241); test: Kinase inhibition, percentage of activity at 0.5 μM, standardized radiometric kinase assays; assay type: biochemical; settings: Fyn(h);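 note: each kinase tested separately, with activity read as 33P-labelled substrate protein captured on filters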
Chain of protein kinases (Homo sapiens, UniProt P06241) (P06241 2-537 limits assumed): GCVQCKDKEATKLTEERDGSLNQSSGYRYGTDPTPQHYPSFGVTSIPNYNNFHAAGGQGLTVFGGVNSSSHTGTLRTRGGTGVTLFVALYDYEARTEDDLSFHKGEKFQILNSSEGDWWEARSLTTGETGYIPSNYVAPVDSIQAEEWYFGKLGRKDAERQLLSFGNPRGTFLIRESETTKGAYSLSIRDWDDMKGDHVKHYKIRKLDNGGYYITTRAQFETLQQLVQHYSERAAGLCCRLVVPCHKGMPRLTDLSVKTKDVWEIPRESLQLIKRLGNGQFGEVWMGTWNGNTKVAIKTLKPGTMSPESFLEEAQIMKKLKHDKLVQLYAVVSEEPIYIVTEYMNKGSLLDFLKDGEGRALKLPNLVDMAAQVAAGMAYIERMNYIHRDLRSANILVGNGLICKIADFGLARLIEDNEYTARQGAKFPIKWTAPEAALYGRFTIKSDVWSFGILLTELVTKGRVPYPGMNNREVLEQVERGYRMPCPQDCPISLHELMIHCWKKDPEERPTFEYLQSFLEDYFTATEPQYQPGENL

protein kinases [3] = biological target: protein kinases (Homo sapiens, UniProt Q06418); test: as above; assay type: biochemical; settings: Rse(h)
Chain of protein kinases (Homo sapiens, UniProt Q06418) (Q06418 41-890 limits assumed): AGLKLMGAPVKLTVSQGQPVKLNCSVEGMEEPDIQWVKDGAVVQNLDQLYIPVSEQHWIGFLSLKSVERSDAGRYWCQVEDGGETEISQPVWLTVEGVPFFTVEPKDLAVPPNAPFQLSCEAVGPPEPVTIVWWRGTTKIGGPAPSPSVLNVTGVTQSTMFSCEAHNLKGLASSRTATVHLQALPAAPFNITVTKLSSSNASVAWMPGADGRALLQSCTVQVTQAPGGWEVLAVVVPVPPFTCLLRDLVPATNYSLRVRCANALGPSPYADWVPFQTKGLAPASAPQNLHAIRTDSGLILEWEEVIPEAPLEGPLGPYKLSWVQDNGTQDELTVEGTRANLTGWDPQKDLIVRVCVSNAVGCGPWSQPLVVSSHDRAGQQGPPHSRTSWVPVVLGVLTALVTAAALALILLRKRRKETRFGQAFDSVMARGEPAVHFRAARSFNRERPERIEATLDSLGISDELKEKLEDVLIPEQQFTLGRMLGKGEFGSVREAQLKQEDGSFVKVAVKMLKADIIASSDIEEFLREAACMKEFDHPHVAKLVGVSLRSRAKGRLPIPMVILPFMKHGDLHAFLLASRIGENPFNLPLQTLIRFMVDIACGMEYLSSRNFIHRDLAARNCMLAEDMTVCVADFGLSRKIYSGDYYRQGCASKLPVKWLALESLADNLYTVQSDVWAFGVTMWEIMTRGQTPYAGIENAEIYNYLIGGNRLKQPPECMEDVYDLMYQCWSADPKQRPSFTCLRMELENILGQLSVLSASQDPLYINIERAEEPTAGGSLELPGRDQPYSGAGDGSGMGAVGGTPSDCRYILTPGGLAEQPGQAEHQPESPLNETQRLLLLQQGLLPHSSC

protein kinases [4] = biological target: protein kinases (Homo sapiens, UniProt P06493); test: as above; assay type: biochemical; settings: CDK1/cyclinB(h)
protein kinases [5] = biological target: protein kinases (Homo sapiens, UniProt O00418); test: as above; assay type: biochemical; settings: eEF-2K(h)
protein kinases [6] = biological target: protein kinases (Homo sapiens, UniProt P04049); test: as above; assay type: biochemical; settings: c-RAF(h)
protein kinases [7] = biological target: protein kinases (Homo sapiens, UniProt Q92630); test: as above; assay type: biochemical; settings: DYRK2(h)
protein kinases [8] = biological target: protein kinases (Homo sapiens, UniProt P16234); test: as above; assay type: biochemical; settings: PDGFRα(h)
protein kinases [9] = biological target: protein kinases (Homo sapiens, UniProt P11362); test: as above; assay type: biochemical; settings: FGFR1(h)
Chain of protein kinases (Homo sapiens, UniProt P11362) (P11362 22-822 limits assumed): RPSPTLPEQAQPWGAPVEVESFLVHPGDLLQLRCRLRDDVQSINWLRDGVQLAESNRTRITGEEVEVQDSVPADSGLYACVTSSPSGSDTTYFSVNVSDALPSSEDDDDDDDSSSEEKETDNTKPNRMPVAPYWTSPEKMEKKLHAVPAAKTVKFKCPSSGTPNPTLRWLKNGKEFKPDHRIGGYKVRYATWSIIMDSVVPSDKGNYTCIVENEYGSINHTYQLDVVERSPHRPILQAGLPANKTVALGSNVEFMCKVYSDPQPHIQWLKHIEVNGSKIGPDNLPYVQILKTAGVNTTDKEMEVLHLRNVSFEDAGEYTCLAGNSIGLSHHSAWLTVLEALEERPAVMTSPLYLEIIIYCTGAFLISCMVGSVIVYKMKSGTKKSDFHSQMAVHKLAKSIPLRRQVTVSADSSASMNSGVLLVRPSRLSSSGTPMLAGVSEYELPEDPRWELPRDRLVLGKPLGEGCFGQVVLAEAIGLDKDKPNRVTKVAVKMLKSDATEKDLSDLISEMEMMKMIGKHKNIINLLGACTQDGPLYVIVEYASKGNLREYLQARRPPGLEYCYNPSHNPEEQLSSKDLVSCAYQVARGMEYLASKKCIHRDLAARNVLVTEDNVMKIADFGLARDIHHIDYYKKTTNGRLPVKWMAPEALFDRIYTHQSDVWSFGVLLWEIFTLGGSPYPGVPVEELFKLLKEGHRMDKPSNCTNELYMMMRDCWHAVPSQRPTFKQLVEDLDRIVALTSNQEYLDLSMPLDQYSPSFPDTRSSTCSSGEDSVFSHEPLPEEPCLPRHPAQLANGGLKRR

protein kinases [10] = biological target: protein kinases (Homo sapiens, UniProt Q05397); test: as above; assay type: biochemical; settings: FAK(h)
Chain of protein kinases (Homo sapiens, UniProt Q05397) (Q05397 2-1052 limits assumed): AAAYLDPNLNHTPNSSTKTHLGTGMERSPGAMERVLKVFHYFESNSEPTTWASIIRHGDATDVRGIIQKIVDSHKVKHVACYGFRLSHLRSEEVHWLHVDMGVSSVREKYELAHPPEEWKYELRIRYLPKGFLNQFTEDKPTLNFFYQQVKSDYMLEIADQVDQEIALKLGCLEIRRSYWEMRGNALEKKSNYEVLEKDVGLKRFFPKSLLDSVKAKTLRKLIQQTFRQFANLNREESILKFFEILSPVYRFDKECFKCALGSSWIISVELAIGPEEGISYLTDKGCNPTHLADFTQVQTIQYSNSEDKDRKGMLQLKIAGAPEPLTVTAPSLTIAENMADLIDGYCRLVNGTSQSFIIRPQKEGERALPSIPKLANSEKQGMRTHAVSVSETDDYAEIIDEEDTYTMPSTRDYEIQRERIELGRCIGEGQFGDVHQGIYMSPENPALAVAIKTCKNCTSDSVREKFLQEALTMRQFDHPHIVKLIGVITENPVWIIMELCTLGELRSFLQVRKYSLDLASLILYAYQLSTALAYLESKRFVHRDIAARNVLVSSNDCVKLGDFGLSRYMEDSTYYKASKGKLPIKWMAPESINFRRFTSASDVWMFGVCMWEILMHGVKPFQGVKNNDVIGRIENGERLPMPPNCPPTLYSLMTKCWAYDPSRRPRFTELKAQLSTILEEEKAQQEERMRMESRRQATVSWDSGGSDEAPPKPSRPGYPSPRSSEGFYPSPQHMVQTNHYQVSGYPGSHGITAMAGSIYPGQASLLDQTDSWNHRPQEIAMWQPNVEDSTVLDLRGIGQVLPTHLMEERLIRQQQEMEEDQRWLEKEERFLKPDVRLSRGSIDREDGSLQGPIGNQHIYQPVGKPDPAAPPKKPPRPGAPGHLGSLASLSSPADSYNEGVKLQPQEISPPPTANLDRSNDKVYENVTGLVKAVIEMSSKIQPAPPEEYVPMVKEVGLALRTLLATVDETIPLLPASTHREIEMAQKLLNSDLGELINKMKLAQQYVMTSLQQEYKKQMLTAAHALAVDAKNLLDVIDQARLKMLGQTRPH

protein kinases [11] = biological target: protein kinases (Homo sapiens, UniProt Q8IW41); test: as above; assay type: biochemical; settings: PRAK(h)
protein kinases [12] = biological target: protein kinases (Homo sapiens, UniProt P80192); test: as above; assay type: biochemical; settings: MLK1(h)
protein kinases [13] = biological target: protein kinases (Homo sapiens, UniProt O15111); test: as above; assay type: biochemical; settings: IKKα(h)
protein kinases [14] = biological target: protein kinases (Homo sapiens, UniProt Q9H4B4); test: as above; assay type: biochemical; settings: Plk3(h)
protein kinases [15] = biological target: protein kinases (Homo sapiens, UniProt P35968); test: as above; assay type: biochemical; settings: KDR(h)
protein kinases [16] = biological target: protein kinases (Homo sapiens, UniProt P08069); test: as above; assay type: biochemical; settings: IGF-1R(h)
protein kinases [17] = biological target: protein kinases (Homo sapiens, UniProt P16591); test: as above; assay type: biochemical; settings: Fer(h)
protein kinases [18] = biological target: protein kinases (Homo sapiens, UniProt P11309); test: as above; assay type: biochemical; settings: Pim-1(h)
protein kinases [19] = biological target: protein kinases (Homo sapiens, UniProt O14965); test: as above; assay type: biochemical; settings: Aurora-A(h)
protein kinases [20] = biological target: protein kinases (Homo sapiens, UniProt Q13177); test: as above; assay type: biochemical; settings: PAK2(h)
Chain of protein kinases (Homo sapiens, UniProt Q13177) (Q13177 2-524 limits assumed): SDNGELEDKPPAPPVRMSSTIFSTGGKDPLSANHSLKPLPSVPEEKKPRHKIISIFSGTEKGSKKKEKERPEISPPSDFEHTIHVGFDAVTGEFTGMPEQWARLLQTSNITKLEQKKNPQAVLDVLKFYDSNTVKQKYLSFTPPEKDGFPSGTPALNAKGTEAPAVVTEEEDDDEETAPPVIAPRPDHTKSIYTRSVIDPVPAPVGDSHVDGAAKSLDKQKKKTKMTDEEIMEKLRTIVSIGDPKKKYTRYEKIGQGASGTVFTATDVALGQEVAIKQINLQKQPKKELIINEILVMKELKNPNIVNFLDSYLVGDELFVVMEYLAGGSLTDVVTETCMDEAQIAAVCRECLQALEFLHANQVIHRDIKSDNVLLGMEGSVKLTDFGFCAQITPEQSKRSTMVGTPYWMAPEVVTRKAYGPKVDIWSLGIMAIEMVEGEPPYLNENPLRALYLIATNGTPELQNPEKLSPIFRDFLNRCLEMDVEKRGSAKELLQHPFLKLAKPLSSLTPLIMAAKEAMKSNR

protein kinases [21] = biological target: protein kinases (Homo sapiens, UniProt P36888); test: as above; assay type: biochemical; settings: Flt3(h)
protein kinases [22] = biological target: protein kinases (Homo sapiens, UniProt P10721, V560G); test: as above; assay type: biochemical; settings: cKit(V560G)(h)
Chain of protein kinases (Homo sapiens, UniProt P10721, V560G) (P10721 26-976 V560G limits assumed): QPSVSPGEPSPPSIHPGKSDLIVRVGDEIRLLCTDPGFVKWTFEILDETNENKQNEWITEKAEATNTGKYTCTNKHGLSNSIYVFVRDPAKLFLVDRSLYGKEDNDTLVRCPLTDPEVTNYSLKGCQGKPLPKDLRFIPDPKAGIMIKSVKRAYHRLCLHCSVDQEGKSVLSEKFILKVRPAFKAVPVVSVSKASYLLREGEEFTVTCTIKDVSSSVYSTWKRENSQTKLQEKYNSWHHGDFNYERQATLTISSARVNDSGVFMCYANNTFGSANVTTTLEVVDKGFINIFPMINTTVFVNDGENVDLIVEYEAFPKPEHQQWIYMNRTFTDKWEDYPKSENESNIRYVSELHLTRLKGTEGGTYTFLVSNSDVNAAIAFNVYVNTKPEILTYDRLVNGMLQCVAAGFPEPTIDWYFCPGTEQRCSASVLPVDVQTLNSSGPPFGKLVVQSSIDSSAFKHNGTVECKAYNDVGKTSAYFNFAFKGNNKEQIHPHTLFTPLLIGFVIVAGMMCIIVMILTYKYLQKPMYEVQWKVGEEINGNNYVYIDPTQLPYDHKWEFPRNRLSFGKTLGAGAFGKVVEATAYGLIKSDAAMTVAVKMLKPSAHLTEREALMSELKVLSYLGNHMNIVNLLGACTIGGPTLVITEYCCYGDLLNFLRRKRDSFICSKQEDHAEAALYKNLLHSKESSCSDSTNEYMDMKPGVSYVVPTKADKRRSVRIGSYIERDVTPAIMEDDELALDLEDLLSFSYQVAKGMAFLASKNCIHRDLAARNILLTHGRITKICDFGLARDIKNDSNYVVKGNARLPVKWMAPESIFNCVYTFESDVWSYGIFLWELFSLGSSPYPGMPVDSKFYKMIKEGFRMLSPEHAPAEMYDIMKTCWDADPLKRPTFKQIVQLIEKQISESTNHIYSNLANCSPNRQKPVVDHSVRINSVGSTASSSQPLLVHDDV

protein kinases [23] = biological target: protein kinases (Homo sapiens, UniProt Q9UM73); test: as above; assay type: biochemical; settings: ALK(h)
[24] = Tumor pharmacokinetic study, 30 mg/kg IV QDx6; assay type: in vivo, mice

Chain of recombinant human PIM-1 (P11309 whole entry): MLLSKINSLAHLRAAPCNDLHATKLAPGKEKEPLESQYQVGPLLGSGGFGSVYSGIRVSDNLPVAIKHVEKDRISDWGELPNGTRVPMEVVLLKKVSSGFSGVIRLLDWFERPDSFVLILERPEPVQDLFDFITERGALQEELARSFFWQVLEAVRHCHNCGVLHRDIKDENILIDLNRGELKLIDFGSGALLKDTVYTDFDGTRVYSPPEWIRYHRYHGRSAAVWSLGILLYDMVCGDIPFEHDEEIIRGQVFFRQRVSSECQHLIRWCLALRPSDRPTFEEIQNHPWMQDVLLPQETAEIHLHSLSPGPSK

Structure (SMILES): C#Cc1cccc(Nc2nc3cc(C(=O)O)ccc3c3cncnc23)c1 [compound A2]
- Body weight (FIG. 4B) [1]: not significantly altering body weight
- IC50 (recombinant human PIM-1): 189 nM
- activity at 0.5 µM (protein kinases [2]): 114%
- activity at 0.5 µM (protein kinases [3]): 109%
- activity at 0.5 µM (protein kinases [4]): 52%
- activity at 0.5 µM (protein kinases [5]): 106%
- activity at 0.5 µM (protein kinases [6]): 69%
- activity at 0.5 µM (protein kinases [7]): 50%
- activity at 0.5 µM (protein kinases [8]): 109%
- activity at 0.5 µM (protein kinases [9]): 103%
- activity at 0.5 µM (protein kinases [10]): 97%
- activity at 0.5 µM (protein kinases [11]): 93%
- activity at 0.5 µM (protein kinases [12]): 80%
- activity at 0.5 µM (protein kinases [13]): 101%
- activity at 0.5 µM (protein kinases [14]): 106%
- activity at 0.5 µM (protein kinases [15]): 67%
- activity at 0.5 µM (protein kinases [16]): 73%
- activity at 0.5 µM (protein kinases [17]): 103%
- activity at 0.5 µM (protein kinases [18]): 27%
- activity at 0.5 µM (protein kinases [19]): 94%
- activity at 0.5 µM (protein kinases [20]): 112%
- activity at 0.5 µM (protein kinases [21]): 42%
- activity at 0.5 µM (protein kinases [22]): 111%
- activity at 0.5 µM (protein kinases [23]): 112%
- Half life change on repeated dosing [24]: about doubles
- Minimum concentration increase after six days [24]: 4-5 times higher
- Time to steady state [24]: about three days
